# Marks after values point to notes of the source that are not given here.
# Legend:
# C57BL/6J mice [1] = test: Visceral fat reduction: tissue weights in mice made obese on high-fat, high-sugar feed (Example 4); assay type: in vivo; settings: obese female C57BL/6J mice, 3 weeks test feed, 7wt% test oil (CLA group: 0.5wt% CLA + 6.5wt% soybean oil)
# Protocol: The visceral fat reduction effects or visceral fat accumulation suppression effects of the PPAR agonist and oil/fat composition of the present invention are evaluated by administering the candidate compound to a laboratory animal for a specific time period (e.g. 4 weeks), and then measuring the amount of visceral fat in the adipose tissue around the testes, the adipose tissue around the kidneys and the like.
# 10-week old female C57BL/6J mice (from Clea Japan) were made obese by keeping for 3 weeks on a high-fat, high-sugar feed (made by Oriental Yeast) having the composition shown in Table 4. The mice were then divided into groups of 8, and were kept for a further 3 weeks on a test feed consisting of a fat-free growth-period-use standard mixed feed (AIN-93G, made by Oriental Yeast) with 2wt% soybean oil as an essential fatty acid source and either 7wt% of a test oil or 7wt% of a control oil added. After 3 weeks, the mice were fed for the last time and then not fed for 16 hours, after which the whole blood was collected from the mice using a heparinized syringe under ether anesthesia, and then the mice were dissected, with the adipose tissue around the kidneys, the adipose tissue around the ovaries, the liver, the kidneys and the spleen being extracted, and the weights thereof being measured. Each organ weight thus obtained was divided by the body weight to obtain the ratio of the organ weight to the body weight. The adipose tissue around the kidneys and the adipose tissue around the ovaries was evaluated as visceral adipose tissue. The collected blood was centrifuged for 15 minutes at 3000 rpm while cooling to obtain the plasma, and then the total cholesterol concentration was measured using Cholesterol C Test Wako (made by Wako Pure Chemical Industries), the neutral lipid concentration using Triglyceride G Test Wako (made by Wako Pure Chemical Industries), and the free fatty acid concentration using NEFA C Test Wako (made by Wako Pure Chemical Industries). The groups set up were a test group for which pomegranate seed oil prepared as in Example 1 was added to the feed (pomegranate seed oil group), a control group for which soybean oil was added to the feed (soybean oil group), and a comparative group for which high-DHA-containing fish oil (DHA content 20wt%, made by Harima Chemicals), which is known to have obesity ameliorating effects, was added to the feed (fish oil group). Also set up was a group for which 6.5wt% of soybean oil and 0.5wt% of CLA (made by Kenko Tsusho, 70% purity) was added to the feed (CLA group). […] Moreover, also set up was a group that were fed a standard feed containing 9wt% of soybean oil throughout the test period right from the start (standard feed group, n=3). During the test period, the mice were allowed to drink water freely, but feeding was limited such that the intake was the same as for the soybean oil group.
# C57BL/6J mice [2] = test: Lipid metabolism amelioration: plasma lipid concentrations in obese mice (Example 4); assay type: in vivo; settings: after 16 hours without feed, 3 weeks test feed, 7wt% test oil (CLA 0.5wt%), soybean oil group = 100
# Text: 10-week old female C57BL/6J mice (from Clea Japan) were made obese by keeping for 3 weeks on a high-fat, high-sugar feed (made by Oriental Yeast) having the composition shown in Table 4. The mice were then divided into groups of 8, and were kept for a further 3 weeks on a test feed consisting of a fat-free growth-period-use standard mixed feed (AIN-93G, made by Oriental Yeast) with 2wt% soybean oil as an essential fatty acid source and either 7wt% of a test oil or 7wt% of a control oil added. After 3 weeks, the mice were fed for the last time and then not fed for 16 hours, after which the whole blood was collected from the mice using a heparinized syringe under ether anesthesia, and then the mice were dissected, with the adipose tissue around the kidneys, the adipose tissue around the ovaries, the liver, the kidneys and the spleen being extracted, and the weights thereof being measured. Each organ weight thus obtained was divided by the body weight to obtain the ratio of the organ weight to the body weight. The adipose tissue around the kidneys and the adipose tissue around the ovaries was evaluated as visceral adipose tissue. The collected blood was centrifuged for 15 minutes at 3000 rpm while cooling to obtain the plasma, and then the total cholesterol concentration was measured using Cholesterol C Test Wako (made by Wako Pure Chemical Industries), the neutral lipid concentration using Triglyceride G Test Wako (made by Wako Pure Chemical Industries), and the free fatty acid concentration using NEFA C Test Wako (made by Wako Pure Chemical Industries). The groups set up were a test group for which pomegranate seed oil prepared as in Example 1 was added to the feed (pomegranate seed oil group), a control group for which soybean oil was added to the feed (soybean oil group), and a comparative group for which high-DHA-containing fish oil (DHA content 20wt%, made by Harima Chemicals), which is known to have obesity ameliorating effects, was added to the feed (fish oil group). […]
# mice = test: Preliminary tests of CLA added to feed (liver enlargement, food intake); assay type: in vivo; settings: 1wt% or more of CLA added to the feed
# PPARγ = biological target: T1, PPARγ (Homo sapiens, UniProt P37231); test: PPARγ agonist activity, GAL4-PPARγ chimera / 4×UASg-luc luciferase reporter assay in CV-1 cells; settings: for Relative activity (n=3): untreated control = 100
# T1 sequence (P37231 204-505): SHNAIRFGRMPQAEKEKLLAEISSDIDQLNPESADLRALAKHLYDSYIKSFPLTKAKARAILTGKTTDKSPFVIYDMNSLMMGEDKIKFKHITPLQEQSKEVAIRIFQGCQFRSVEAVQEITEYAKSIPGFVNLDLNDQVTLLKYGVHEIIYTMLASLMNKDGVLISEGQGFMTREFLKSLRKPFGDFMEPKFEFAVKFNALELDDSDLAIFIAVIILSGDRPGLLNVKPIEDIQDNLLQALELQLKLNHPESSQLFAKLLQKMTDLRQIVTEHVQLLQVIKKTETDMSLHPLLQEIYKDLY
# Protocol: Moreover, untreated control groups were established by exchanging with a culture medium prepared by diluting only DMSO with DMEM containing 10% activated-charcoal-treated bovine fetal serum. […] One day after the culture medium exchange, the culture medium was removed, the cells were washed with phosphate buffered saline (PBS), a cell solution was prepared using PicaGene cell solution Luc (made by Toyo Ink), 20µl of the cell solution was reacted with 100µl of a PicaGene luminescent substrate (made by Toyo Ink), and the luciferase activity was measured using a luminometer (Berthold Lumat LB9501) with the measurement time set to 10 seconds.
# Letting the ratio of the measurement group (the group for which pM-PPAR and 4×UASg-luc were transfected) to the control group (the group for which pM and 4×UASg-luc were transfected) in the case of the untreated control groups be (a), and the ratio of the measurement group to the control group in the case of the ligand-reagent-added groups be (b), the PPARγ agonist activity caused by the ligand reagent was evaluated using the ratio (b)/(a). To avoid errors due to differences in the transfection efficiency between experiments, TZD (1µm) was put in as positive control groups and the values between the experiments were corrected.
substance,measurement,setting,value
conjugated linoleic acid [CLA],"Ratio of tissue weight to body weight (mean, n=8): Fat around kidneys",C57BL/6J mice [1]; soybean oil group 0.304,0.240
same,"Ratio of tissue weight to body weight (mean, n=8): Spleen",C57BL/6J mice [1]; soybean oil group 0.391,0.450
same,"Ratio of tissue weight to body weight (mean, n=8): Fat around ovaries",C57BL/6J mice [1]; soybean oil group 0.839,0.650
same,"Ratio of tissue weight to body weight (mean, n=8): Kidneys",C57BL/6J mice [1]; soybean oil group 1.128,1.280
same,"Ratio of tissue weight to body weight (mean, n=8): Visceral fat",C57BL/6J mice [1]; soybean oil group 1.144,0.890
same,"Ratio of tissue weight to body weight (mean, n=8): Liver",C57BL/6J mice [1]; soybean oil group 4.454,4.920
same,"Relative blood lipid concentration (mean, n=8): Free fatty acids",C57BL/6J mice [2],71* % of soybean oil group
same,"Relative blood lipid concentration (mean, n=8): Neutral lipids",C57BL/6J mice [2],100 mg/dL
same,"Relative blood lipid concentration (mean, n=8): Total cholesterol",C57BL/6J mice [2],89 mg/dL
same,food intake,mice,drop in the mice's food intake
same,liver enlargement,mice,1.4 times relative to a control
same,"Relative activity (mean, n=3)","PPARγ; 20µM final fatty acid concentration, untreated control group = 100",125
same,Relative activity (n=3),"PPARγ; concentration 3 (µm [sic]), 3 µM",129
same,Relative activity (n=3),"PPARγ; concentration 9 (µm [sic]), 9 µM",109
same,Relative activity (n=3),"PPARγ; concentration 30 (µm [sic]), 30 µM",110
same,Relative activity (n=3),"PPARγ; concentration 90 (µm [sic]), 90 µM",159
same,Relative activity (n=3),"PPARγ; concentration 300 (µm [sic]), 300 µM",323

# From patent EP1175901A1, “PEROXISOME ACTIVATOR-RESPONSIVE RECEPTOR AGONISTS” (Kaneka Corporation, priority 1999, dated 2000)
